Measurements as given in paper PMC8092108, “Mycophenolate suppresses inflammation by inhibiting prostaglandin synthases: a study of molecular and experimental drug repurposing” (PeerJ, 2021).
“And” between values parts separate entries of the source, which are not always exact repeats. Identical values can stand only once. Like-named read-outs stand apart in the source and are kept apart here. One block for each molecule: values may come before it.

Assays:
[1] = test system: carrageenan-induced paw edema; assay: Carrageenan-induced rat paw edema test; type: in vivo; details: for Rat paw edema after treatment: MMF 12.5–50 mg/kg, indomethacin or celecoxib 10 mg/kg oral; for Rat paw size: individual rats 1-7
Method: The in vivo assay was performed by the rat paw edema inhibition test as previously described ([Morris, 2003]; [Winter, Risley & Nuss, 1962]). Forty-nine male adult albino rats weighing […] were obtained from the Animal Breeding Center at the College of Veterinary Medicine, King Faisal University, and were randomly divided into seven groups (n = 7/group). The animal groups included the nontreated control group, carrageenan group, and five groups receiving carrageenan and treated with either indomethacin, celecoxib, or MMF at three doses (12.5, 25, and 50 mg/kg). All rats were allowed free access to food and water. All cages were kept in controlled rooms at 25 °C and exposed to a 12-h light/dark cycle. MMF and two reference drugs, indomethacin and celecoxib, were suspended in 1% NaCMC in normal saline. A 1% carrageenan solution in normal saline was injected into the subplantar area of the right hind paw of rats. One hour before injection of carrageenan, rats were given either indomethacin or celecoxib at a dose rate of 10 mg/kg or MMF at three dose levels of 12.5, 25, and 50 mg/kg by oral administration. […] The measurements were blind to avoid measurement bias. The King Faisal University Ethics Committee (approval no. KFU-REC/2020-10-11) approved all animal experiments. Since no samples were taken from rats, there were no anesthesia procedures. The size of the hind paw was only measured in non-anesthetized rats. At the end of the experiment, all rats were euthanized according to the regulations of the King Faisal University Ethics Committee by an overdose of pentobarbital (200 mg/kg IP) and decapitation. The effect of MMF at different doses on relieving rat paw edema was compared with the control and standard NSAID-treated groups. Significant differences were determined by one-way analysis of variance (ANOVA) with Tukey’s post hoc test. All steps were implemented using GraphPad prism software (GraphPad Software, La Jolla, CA, USA).

[2] = biological target: T1, COX-1 (Ovis aries, UniProt P05979); assay: COX inhibitor screening assay, COX-1; type: biochemical
T1 construct: purchased
T1 sequence (P05979 25-600): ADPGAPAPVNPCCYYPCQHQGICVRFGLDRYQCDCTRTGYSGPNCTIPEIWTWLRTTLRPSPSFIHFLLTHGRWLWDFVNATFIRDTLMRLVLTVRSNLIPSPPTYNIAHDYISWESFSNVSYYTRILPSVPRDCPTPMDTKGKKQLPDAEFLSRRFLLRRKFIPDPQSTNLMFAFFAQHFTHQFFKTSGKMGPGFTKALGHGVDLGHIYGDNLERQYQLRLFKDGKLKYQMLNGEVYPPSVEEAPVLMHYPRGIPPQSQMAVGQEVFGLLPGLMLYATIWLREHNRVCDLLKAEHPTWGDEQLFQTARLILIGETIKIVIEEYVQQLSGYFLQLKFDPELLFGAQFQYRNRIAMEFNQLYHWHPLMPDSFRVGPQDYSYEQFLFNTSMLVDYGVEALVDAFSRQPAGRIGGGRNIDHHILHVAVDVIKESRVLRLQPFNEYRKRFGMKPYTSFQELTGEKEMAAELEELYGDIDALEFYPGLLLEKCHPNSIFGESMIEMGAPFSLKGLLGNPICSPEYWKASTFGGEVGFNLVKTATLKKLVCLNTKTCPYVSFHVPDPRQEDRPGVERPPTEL
Method: (§1) The inhibitory effects of the drugs MMF and MPA on COX-1 and COX-2 were measured using the COX inhibitor screening assay kit and LOX inhibitor screening kit. […] Briefly, the reaction buffer (Tris–HCl buffer, pH 8.0) containing 5 mM EDTA, 2 mM phenol, and 1 µM hematin was measured into test tubes. The test drugs were dissolved in dimethyl sulfoxide and added to the tubes to final concentrations of […]. COX-1 or COX-2 was added to the test tubes and preincubated for 10 min at 37 °C. Arachidonic acid was then added, and the tubes were incubated for 2 min at 37 °C. The enzyme immunoassay was used to measure the concentration of the product prostaglandin F2α (PGF2α). The estimated values were determined after comparison to the predetermined standard curve. The IC50 was determined after three different experiments. The selectivity index was calculated from Eq. (1):
(§2) (1) Selectivity index=IC50COX−1/IC50COX−2

[3] = biological target: T2, COX-2 (Homo sapiens, UniProt P35354); assay: COX inhibitor screening assay, COX-2; type: biochemical
T2 construct: purchased
T2 sequence (P35354 18-604): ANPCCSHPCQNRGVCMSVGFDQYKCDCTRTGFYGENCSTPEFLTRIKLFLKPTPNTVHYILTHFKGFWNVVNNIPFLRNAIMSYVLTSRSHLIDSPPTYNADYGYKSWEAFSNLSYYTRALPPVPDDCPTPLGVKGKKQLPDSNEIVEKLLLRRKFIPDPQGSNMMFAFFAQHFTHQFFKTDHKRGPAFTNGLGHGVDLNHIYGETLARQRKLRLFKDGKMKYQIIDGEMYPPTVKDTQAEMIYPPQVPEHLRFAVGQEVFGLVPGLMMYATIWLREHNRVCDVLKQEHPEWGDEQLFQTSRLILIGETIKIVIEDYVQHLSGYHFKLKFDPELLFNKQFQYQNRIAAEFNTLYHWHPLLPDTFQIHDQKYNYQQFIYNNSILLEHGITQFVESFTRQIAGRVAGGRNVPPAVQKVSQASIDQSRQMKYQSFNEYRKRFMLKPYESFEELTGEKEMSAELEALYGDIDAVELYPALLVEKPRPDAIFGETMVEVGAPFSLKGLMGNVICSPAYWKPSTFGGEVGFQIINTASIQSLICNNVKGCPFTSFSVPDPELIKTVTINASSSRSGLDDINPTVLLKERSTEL
Method: as §1, §2

[4] = test system: 12-LOX; assay: LOX inhibitor screening kit; type: biochemical
Method: The inhibitory effects of the drugs MMF and MPA on COX-1 and COX-2 were measured using the COX inhibitor screening assay kit and LOX inhibitor screening kit. The assay was performed according to the manufacturer’s directions and previously described methods ([Chowdhury et al., 2008]; [Lee et al., 2004]). Briefly, the reaction buffer (Tris–HCl buffer, pH 8.0) containing 5 mM EDTA, 2 mM phenol, and 1 µM hematin was measured into test tubes. The test drugs were dissolved in dimethyl sulfoxide and added to the tubes to final concentrations of […]. COX-1 or COX-2 was added to the test tubes and preincubated for 10 min at 37 °C. Arachidonic acid was then added, and the tubes were incubated for 2 min at 37 °C. The enzyme immunoassay was used to measure the concentration of the product prostaglandin F2α (PGF2α). The estimated values were determined after comparison to the predetermined standard curve. The IC50 was determined after three different experiments. The selectivity index was calculated from Eq. (1): […]

[5] = cited from earlier work

SMILES: Cc1ccc(-c2cc(C(F)(F)F)nn2-c2ccc(S(N)(=O)=O)cc2)cc1 [Celecoxib, celecoxib]
Rat paw edema after treatment [1]: significantly relieved
Rat paw size ([1]; celecoxib 10 mg/kg oral, Time (h) 1): 0.75 cm (4×) and 0.71 cm and 0.7 cm and 0.73 cm
Rat paw size ([1]; celecoxib 10 mg/kg oral, Time (h) 2): 0.75 cm and 0.65 cm (2×) and 0.7 cm and 0.67 cm and 0.68 cm and 0.6 cm
Rat paw size ([1]; celecoxib 10 mg/kg oral, Time (h) 3): 0.55 cm and 0.45 cm and 0.5 cm (3×) and 0.49 cm and 0.4 cm
Rat paw size ([1]; celecoxib 10 mg/kg oral, Time (h) 4): 0.5 cm (2×) and 0.48 cm and 0.45 cm (3×) and 0.4 cm
Rat paw size ([1]; celecoxib 10 mg/kg oral, Time (h) 5): 0.4 cm (3×) and 0.45 cm and 0.43 cm and 0.38 cm and 0.42 cm
Rat paw size ([1]; celecoxib 10 mg/kg oral, Time (h) 6): 0.6 cm (2×) and 0.56 cm and 0.55 cm (2×) and 0.65 cm and 0.5 cm

SMILES: COc1ccc2c(c1)c(CC(=O)O)c(C)n2C(=O)c1ccc(Cl)cc1 [Indomethacin, indomethacin]
Rat paw edema after treatment [1]: significantly relieved
Rat paw size ([1]; indomethacin 10 mg/kg oral, Time (h) 1): 0.7 cm (4×) and 0.75 cm (3×)
Rat paw size ([1]; indomethacin 10 mg/kg oral, Time (h) 2): 0.7 cm and 0.6 cm (3×) and 0.55 cm (2×) and 0.5 cm
Rat paw size ([1]; indomethacin 10 mg/kg oral, Time (h) 3): 0.45 cm and 0.43 cm and 0.4 cm (2×) and 0.42 cm and 0.5 cm and 0.44 cm
Rat paw size ([1]; indomethacin 10 mg/kg oral, Time (h) 4): 0.35 cm and 0.38 cm and 0.4 cm (3×) and 0.39 cm and 0.37 cm
Rat paw size ([1]; indomethacin 10 mg/kg oral, Time (h) 5): 0.35 cm (2×) and 0.37 cm (3×) and 0.4 cm (2×)
Rat paw size ([1]; indomethacin 10 mg/kg oral, Time (h) 6): 0.55 cm and 0.52 cm and 0.5 cm and 0.65 cm and 0.6 cm (2×) and 0.59 cm

IC50 [2]: 4.62 µM
IC50 [3]: 0.14 µM
Selectivity index ([3]; IC50 COX-1/IC50 COX-2): 33.00
IC50 ([4]; printed as 5-LOX in abstract and b38, read-out: IC50 5-LOX): 4.49 µM
IC50 ([4]; read-out: IC50 12-LOX): 4.49 µM
SMILES: COc1c(C)c2c(c(O)c1C/C=C(\C)CCC(=O)O)C(=O)OC2 [Mycophenolic acid, mycophenolic acid]
Time to maximum serum MPA concentration ([5]; after MMF administration, ref Park, 2011): 60 to 90 min
Clinically attainable MPA concentration ([5]; ref Margolis et al., 1999): 1 to 10 µM

IC50 ([4]; read-out: IC50 12-LOX): 3.33 µM
SMILES: O=c1c(O)c(-c2ccc(O)c(O)c2)oc2cc(O)cc(O)c12 [Quercetin]
